Measurements from ChEMBL document CHEMBL1201862, “PubChem BioAssay data set” (2004).
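Cells were grown in 96-well plates and exposed to each compound for 48 hours at five concentrations; endpoints were interpolated linearly between bracketing concentrations, or set to the highest concentration if not reached. GI50 = concentration required for 50% inhibition of growth.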 Activity calls are given as the source filed them. Cut-off read from the data, not from the text of the source: active = GI50 up to about 1.1 µM and inactive = higher.

Tests used:
Experiment in all cases: NCI-60 cell line screen, 48 h
NCI-H460 = tested on: NCI-H460
SNB-19 = tested on: SNB-19
MOLT-4 = tested on: MOLT-4
OVCAR-4 = tested on: OVCAR-4
SR = tested on: SR
786-0 = tested on: 786-0
EKVX = tested on: EKVX
K562 = tested on: K562
SW-620 = tested on: SW-620
NCI-H23 = tested on: NCI-H23
SF-295 = tested on: SF-295
SK-MEL-5 = tested on: SK-MEL-5
OVCAR-3 = tested on: OVCAR-3
SK-OV-3 = tested on: SK-OV-3

Measured: GI50

CC1CC(=O)c2c(ccc3c2C(=O)c2cccc(O)c2C3=O)C1 (stereo not given)
inactive: NCI-H460 4.62 µM | SNB-19 12.2 µM | MOLT-4 2.13 µM | OVCAR-4 12.4 µM | SR 3.54 µM | 786-0 7 µM | EKVX 14.6 µM | K562 2.77 µM | SW-620 4.25 µM | NCI-H23 5.26 µM | SF-295 10.9 µM | SK-MEL-5 2.31 µM | OVCAR-3 3.46 µM | SK-OV-3 19.3 µM

CCCC(O)c1ccc2[nH]c3c(C)cc([N+](=O)[O-])c(C)c3c2c1 (stereo not given)
inactive: NCI-H460 > 100 µM | SNB-19 > 100 µM | MOLT-4 > 100 µM | OVCAR-4 > 100 µM | SR > 100 µM | 786-0 27.4 µM | EKVX > 100 µM | K562 57.4 µM | SW-620 99.1 µM | NCI-H23 > 100 µM | SF-295 95.1 µM | SK-MEL-5 > 100 µM | OVCAR-3 83.2 µM

N#Cc1cccc(C2C(=O)c3ccc(C(=O)c4ccc5c(c4)C(=O)N(c4ccc(Oc6ccc(N7C(=O)c8ccc(C(=O)c9ccc%10c(c9)C(=O)N(c9cccc(C#N)c9)C%10=O)cc8C7=O)cc6)cc4)C5=O)cc3C2=O)c1 (stereo not given)
inactive: NCI-H460 > 100 µM | SNB-19 82.2 µM | MOLT-4 > 100 µM | OVCAR-4 > 100 µM | 786-0 > 100 µM | EKVX > 100 µM | K562 > 100 µM | SW-620 > 100 µM | NCI-H23 > 100 µM | SF-295 > 100 µM | SK-MEL-5 > 100 µM | OVCAR-3 > 100 µM

O=C(Nc1ccc(F)cc1)C(=O)C(C1OC(=O)c2ccccc21)[N+](=O)[O-] (stereo not given)
inactive: NCI-H460 > 100 µM | SNB-19 > 100 µM | MOLT-4 > 100 µM | OVCAR-4 > 100 µM | SR > 100 µM | 786-0 > 100 µM | EKVX > 100 µM | K562 > 100 µM | SW-620 > 100 µM | NCI-H23 > 100 µM | SF-295 > 100 µM | SK-MEL-5 > 100 µM | OVCAR-3 > 100 µM | SK-OV-3 > 100 µM

C[Si](C)(C)/C=C/CCC(C=O)(CCCl)c1ccccc1 (stereo not given)
inactive: NCI-H460 31.6 µM | SNB-19 42.7 µM | MOLT-4 16.3 µM | SR > 10 µM | 786-0 16.3 µM | EKVX 26 µM | K562 25 µM | SW-620 28.6 µM | NCI-H23 21.8 µM | SF-295 21.1 µM | SK-MEL-5 17.8 µM | OVCAR-3 16.7 µM | SK-OV-3 56.9 µM

CCCCNC(=S)Nn1c(-c2ccccc2)nc2ccccc2c1=O
inactive: NCI-H460 > 100 µM | MOLT-4 49.9 µM | OVCAR-4 > 100 µM | 786-0 > 100 µM | K562 67.1 µM | SW-620 > 100 µM | NCI-H23 > 100 µM | SF-295 > 100 µM | SK-MEL-5 > 100 µM | SK-OV-3 > 100 µM

COC(=O)C1=C(C(=O)OC)C(C(=O)OC)C(C(=O)OC)=C1C(=O)OC
inactive: NCI-H460 > 100 µM | SNB-19 > 100 µM | MOLT-4 > 100 µM | OVCAR-4 > 100 µM | 786-0 > 100 µM | EKVX > 100 µM | K562 > 100 µM | SW-620 > 100 µM | NCI-H23 > 100 µM | SF-295 > 100 µM | SK-MEL-5 > 100 µM | OVCAR-3 > 100 µM | SK-OV-3 > 100 µM

Nn1c(-c2ccccc2)nc2ccc(Br)cc2c1=O
inactive: NCI-H460 61.4 µM | SNB-19 95.3 µM | MOLT-4 17.9 µM | OVCAR-4 28.6 µM | 786-0 47.2 µM | EKVX 31.9 µM | K562 29.3 µM | SW-620 46.6 µM | NCI-H23 81.5 µM | SF-295 58.1 µM | SK-MEL-5 53.1 µM | OVCAR-3 24 µM | SK-OV-3 61.5 µM

NC(=O)C(=O)C1CCC2=C(Sc3ccccc3N2)C1=O (stereo not given)
inactive: NCI-H460 > 100 µM | SNB-19 > 100 µM | MOLT-4 > 100 µM | OVCAR-4 > 100 µM | 786-0 > 100 µM | EKVX > 100 µM | K562 > 100 µM | SW-620 > 100 µM | NCI-H23 > 100 µM | SK-MEL-5 > 100 µM | OVCAR-3 > 100 µM | SK-OV-3 > 100 µM

CCOC(=O)C(CC/C=C\c1ccccc1)N1CCC[C@H]1C(=O)OC (stereo not given in full)
inactive: NCI-H460 > 100 µM | SNB-19 > 100 µM | MOLT-4 39.1 µM | OVCAR-4 > 100 µM | SR 40 µM | 786-0 > 100 µM | EKVX > 100 µM | K562 49.4 µM | SW-620 > 100 µM | NCI-H23 > 100 µM | SF-295 > 100 µM | SK-MEL-5 > 100 µM | OVCAR-3 > 100 µM | SK-OV-3 > 100 µM

COC(=O)C1(C(=O)OC)CC(=O)c2cc3c(cc2-c2c(cc(OC)c(OC)c2OC)C1)OCO3
inactive: NCI-H460 > 211 µM | SNB-19 55.3 µM | MOLT-4 83.6 µM | SR 70.3 µM | 786-0 > 211 µM | EKVX > 211 µM | K562 139 µM | SW-620 > 211 µM | NCI-H23 > 211 µM | SF-295 80.4 µM | SK-MEL-5 123 µM | OVCAR-3 98.2 µM | SK-OV-3 > 211 µM

O=C(N/C(=C\c1ccc(/C=C(\NC(=O)c2ccccc2)c2nc3ccccc3s2)cc1)c1nc2ccccc2s1)c1ccccc1
inactive: NCI-H460 4.25 µM | SNB-19 4.09 µM | MOLT-4 4.99 µM | OVCAR-4 5.08 µM | 786-0 1.82 µM | EKVX 1.83 µM | K562 5.38 µM | SW-620 3.84 µM | NCI-H23 11.6 µM | SF-295 4.5 µM | SK-MEL-5 4.88 µM | OVCAR-3 2.78 µM

Cc1ccc(NC(=O)/C(=N\NC(N)=S)C(C#N)c2ccccc2C)cc1C (stereo not given)
inactive: NCI-H460 > 100 µM | SNB-19 > 100 µM | MOLT-4 > 100 µM | OVCAR-4 > 100 µM | SR > 100 µM | 786-0 > 100 µM | EKVX > 100 µM | K562 > 100 µM | SW-620 > 100 µM | NCI-H23 > 100 µM | SF-295 > 100 µM | SK-MEL-5 > 100 µM | OVCAR-3 > 100 µM | SK-OV-3 > 100 µM

Cc1c(C#N)c(=O)[nH]c(=O)n1CCN1CCN(C(=O)NCCCCCCNC(=O)N2CCN(CCn3c(C)c(C#N)c(=O)[nH]c3=O)CC2)CC1
inactive: NCI-H460 > 100 µM | SNB-19 > 100 µM | MOLT-4 > 100 µM | OVCAR-4 > 100 µM | 786-0 > 100 µM | EKVX > 100 µM | K562 > 100 µM | SW-620 > 100 µM | NCI-H23 > 100 µM | SF-295 > 100 µM | SK-MEL-5 > 100 µM | OVCAR-3 > 100 µM | SK-OV-3 > 100 µM

COc1ccccc1NC(=O)C1=C(C)NC(C)=C(C(=O)Nc2ccccc2OC)C1c1ccc(C)cc1
inactive: NCI-H460 31.8 µM | SNB-19 > 100 µM | OVCAR-4 43.4 µM | 786-0 > 100 µM | EKVX 47.6 µM | K562 18.2 µM | SW-620 > 100 µM | NCI-H23 94.8 µM | SF-295 68.4 µM | SK-MEL-5 16.9 µM | OVCAR-3 > 100 µM | SK-OV-3 > 100 µM

COc1cccc2c1CCc1ccccc1CC2=O
inactive: NCI-H460 > 100 µM | SNB-19 > 100 µM | MOLT-4 > 100 µM | OVCAR-4 39.2 µM | SR > 100 µM | 786-0 > 100 µM | EKVX > 100 µM | K562 > 100 µM | SW-620 > 100 µM | NCI-H23 > 100 µM | SF-295 > 100 µM | SK-MEL-5 > 100 µM | OVCAR-3 > 100 µM | SK-OV-3 > 100 µM

COC1=CC(=O)[C@]2(C)[C@H](C1=O)C(C)[C@H]2c1ccc(OC)cc1 (stereo not given in full)
inactive: NCI-H460 > 100 µM | SNB-19 > 100 µM | MOLT-4 > 100 µM | OVCAR-4 > 100 µM | SR > 100 µM | 786-0 > 100 µM | EKVX > 100 µM | K562 > 100 µM | SW-620 > 100 µM | NCI-H23 > 100 µM | SF-295 > 100 µM | SK-MEL-5 > 100 µM | OVCAR-3 > 100 µM | SK-OV-3 > 100 µM

Cc1cccc(-c2nnc3s/c(=C\c4ccc(N(C)C)cc4)c(=O)n23)c1
inactive: NCI-H460 > 100 µM | SNB-19 > 100 µM | MOLT-4 > 100 µM | OVCAR-4 > 100 µM | 786-0 > 100 µM | EKVX > 100 µM | K562 > 100 µM | SW-620 > 100 µM | NCI-H23 > 100 µM | SF-295 > 100 µM | SK-MEL-5 > 100 µM | OVCAR-3 > 100 µM | SK-OV-3 > 100 µM

CCC(=O)N(O)C(C)(C)C
inactive: NCI-H460 > 100 µM | SNB-19 > 100 µM | MOLT-4 > 100 µM | OVCAR-4 > 100 µM | SR > 100 µM | 786-0 > 100 µM | K562 > 100 µM | SW-620 > 100 µM | NCI-H23 > 100 µM | SF-295 > 100 µM | SK-MEL-5 > 100 µM | OVCAR-3 > 100 µM | SK-OV-3 > 100 µM

C[Si](C)(C)/N=C1\N2C(=NC1(C(F)(F)F)C(F)(F)F)Sc1ccccc12
inactive: NCI-H460 > 50 µM | SNB-19 > 50 µM | MOLT-4 > 50 µM | OVCAR-4 > 50 µM | SR > 50 µM | 786-0 > 50 µM | EKVX > 50 µM | K562 > 50 µM | SW-620 > 50 µM | NCI-H23 > 50 µM | SF-295 > 50 µM | SK-MEL-5 > 50 µM | OVCAR-3 > 50 µM | SK-OV-3 > 50 µM
